Reference: patent US12686664B2, “SOCE inhibitors and therapeutic uses thereof” (Institut National de la Santé et de la Recherche Médicale …, priority 2020, dated 2026)
Read-outs that look alike come from different tables or passages of the source.

Experiments:
Assay type in all cases: cell-based
[1] = test system: store-operated Ca^2+ entry in HEK 293; assay: Store-operated Ca2+ entry in HEK 293 cell line; conditions: for Effect on amplitude of SOCE peak: % of inhibition (−) or activation
Method: (§1) The effects of the molecules developed were tested on PLP-B lymphocytes. Store-operated Ca^2+ entry was induced by depletion of Endoplasmic Reticulum Ca^2+ stores (ER Ca^2+ stores) with thapsigargin (Tg) in a Ca^2+-free medium and measured following the addition of 1.8 mM of CaCl2) in the extracellular medium. The results are compared to the results obtained for known SOCE inhibitors SKF-96365, GSK-7975A, Synta 66.
(§2) Then, effects of the molecule that gave the best results in this test (i.e., molecule 6αa) were assessed in two cancer cell lines, namely: HEK 293 and HEK 651 HS1 tumor cell lines.

[2] = test system: store-operated Ca^2+ entry in HEK 651 HS1; assay: Store-operated Ca2+ entry in HEK 651 HS1 cell line; conditions: for Effect on amplitude of SOCE peak: % of inhibition (−) or activation
Method: as §1, §2

SOCE in JOK B cells = assay: Intracellular calcium levels / SOCE in JOK B cells (Fura-2AM, FlexStation 3)
Method: Intracellular calcium levels were monitored at 37° C. using the FlexStation 3™ (Molecular Devices, Berkshire, UK), a fluorescence plate reader measuring time-resolved intracellular Ca^2+ concentration in a 96-well format with cells loaded with the dual-wavelength fluorescent calcium-sensitive dye Fura-2AM.
Intracellular Ca^2+ stores were depleted with 2 μM Thapsigargin (an inhibitor of ER SERCA pumps) under Ca^2+-free conditions to determine the magnitude of intracellular Ca^2+ release. Next, the cells were returned to Ca^2+-containing Hepes-buffered solution to measure SOCE. The magnitude of SOCE was estimated as the maximal values of normalized fluorescence ratio following Ca^2+ re-addition.

HUVEC cells = assay: HUVEC cell death (Annexin/Propidium Iodide, flow cytometry); conditions: HUVEC (FIG. 8)
Method: FIG. 8. In vitro Effects of 6αa, GSK-7975-A and SKF-93365 on HUVEC Cell Death. […] Cell death was analyzed by flow cytometry following Annexin/Propidium Iodide labeling. Percentages of living cells, necrotic cells and apoptotic cells submitted to GSK-7975A (A), SKF-93365 (B), and 6αa (DAD 3-473) (C) treatment were normalized to the DMSO treatment conditions. Histograms present the amounts of apoptotic cells (annexin/PI positive cells) detected in each experimental condition after treatment with GSK-7975A (D), SKF-93365 (E), and 6αa (DAD 3-473) (F). Data are expressed as mean±SEM of n observations (n=2). Data are analyzed with non parametric Mann Withney analysis, *P<0.05, **P<0.01 and ***P<0.001.

JOK cells [3] = assay: JOK cell viability and apoptosis assays (LIVE/DEAD, Annexin V-FITC/PI)
Method: Cell Viability Assays. JOK cells were treated with test compounds (GSK-7975-A, SKF-93365 and 6αa) or solvent for 48 hours. JOK cells viability was then assessed using LIVE/DEAD cell viability assays kit (Abcam). Differentially labeled live and dead cells with fluorescent dyes are analyzed by flow cytometry.
Apoptosis Assay. Apoptosis of JOK cells were determined by Annexin V-FITC/PI staining (Biolegend) using flow cytometry. The percentage of annexin V-FITC and propidium iodide-[…] cells were assessed using Kaluza 1.3.

JOK cells [4] = assay: Migration of JOK cells through HUVEC in transwells; conditions: 5 or 20 μM
Method: Migration Protocol. Migration chambers (transwells) (Transwell 5.0 m polycarbonate membrane Costar) were coated overnight (37° C., 5% CO2) with 100 μL of fibronectine solution containing BSA (1 mg/ml) and LHC Basal Medium. Primary HUmbilical Vein Endothelial Cells (HUVEC) were seeded in each transwell (100 000/well) and cultured for 24 hours (37° C., 5% CO2). To evaluate B cell migration, JOK cells were added (300 000/well) to each transwell upper chamber containing RPMI 1640 medium (BioWest) containing 0.5% BSA and SDF1 (200 ng/ml) was added in the bottom chamber. Cells were cultures in the presence or absence of a test compound (GSK-7975-A, SKF-93365 and 6αa) or solvent. After 24 hours (37° C., 5% CO2), migrated cells were collected in the bottom chambers and counted by flow cytometry. The percentages of migration were calculated for each experimental collection.

PANC-1 cells [5] = assay: PANC-1 cytotoxicity (Cell Tox green assay); conditions: 5 and 20 μM, 24 hours
Method: (§3) Analysis of Cell Proliferation. For PANC-1 cell proliferation and cell cytotoxicity measurements, […] were seeded in 96 well-plates in 100 μL of DMEM medium. Cells were incubated for 24 hours at 37° C. with 3 different SOCE inhibitors (GSK-7975-A, SKF-93365 and 6αa) at 2 different concentrations (5 and 20 μM) compared to DMSO and untreated cells. Cell proliferation was evaluated using the Cell Titer kit proliferation assay (Promega). Cytotoxicity was evaluated using the Cell Tox green cytotoxicity assay (Promega). All the kits were used following manufacturer recommendations and using a plate reader.

[6] = test system: store-operated Ca^2+ entry in PLP-B lymphocytes; assay: Store-operated Ca2+ entry after thapsigargin depletion of ER Ca2+ stores in PLP-B lymphocytes; conditions: for inhibition at 0.1 µM / inhibition at 1 µM / inhibition at 10 µM / inhibition at 50 µM / inhibition at 100 µM: PLP-B lymphocytes, % of inhibition (−) or activation
Method: as §1

PANC-1 cells [7] = assay: PANC-1 cell proliferation (Cell Titer kit); conditions: 5 and 20 μM, 24 hours, to a greater extent than GSK-7975A and SKF-93365
Method: as §3

JOK cells [8] = assay: JOK cell cycle analysis (PI staining, flow cytometry)
Method: Cell Cycle Analysis. JOK cells were incubated with or without test compounds (GSK-7975-A, SKF-93365 and 6αa) for 48 hours and then washed with cold PBS and fixed with 70% ethanol for 30 minutes at room temperature. Cell cycle was analyzed using propidium iodide (PI). Cell-cycle distribution was determined by PI-staining using flow cytometry and analyzed by Kaluza 1.3.

JOK cells [9] = assay: JOK cell proliferation assay
Method: Cell Proliferation Assays. Cultured JOK cells were seeded in 96-well culture plates with or without inhibitors. After 48 hours, cell proliferation was assessed using WST-8 assay (Sigma Aldrich). The absorbance was read at 450 nm on a plate reader.

[10] = Lymphocyte, DMSO control 100%, read-out: Effect on amplitude of SOCE Peak
[11] = Lymphocyte, thapsigargin (Tg) peak, read-out: Effect on amplitude of Tg Peak

Question: `COc1ccc(CCOc2ccc(CCn3cnc4ccccc43)cc2)cc1` [6αa DAD 3-473, 1-[4-(4-Methoxyphenethoxy)phenethyl]-1H-benzo[d]imidazole] was tested. Which “Effect on amplitude of SOCE peak” value ([1]; 1 μM) did it give?
Answer: Its value is 8%.

Question: And the “Effect on amplitude of SOCE peak” value ([1]; 5 μM)?
Answer: Its value is −15%.

Question: What about the “Effect on amplitude of SOCE peak” value ([1]; 10 μM) of the same molecule?
Answer: Its value is −73%.

Question: And the “Effect on amplitude of SOCE peak” value ([1]; 50 μM)?
Answer: The value was −91%.

Question: What about the IC50 ([1]; Homo sapiens, HEK293, average of three assays, ±0.5 μM) of the same molecule?
Answer: The IC50 was 5.1 µM.

Question: What about the “Effect on amplitude of SOCE peak” value ([2]; 5 μM) of the same molecule?
Answer: Its value is −5%.

Question: What about the “Effect on amplitude of SOCE peak” value ([2]; 10 μM) of the same molecule?
Answer: The value was −35%.

Question: What about the “Effect on amplitude of SOCE peak” value ([2]; 50 μM) of the same molecule?
Answer: The value was −86%.

Question: What about the IC50 ([2]; average of three assays, ±0.5 μM) of the same molecule?
Answer: The IC50 was 25 µM.

Question: What about the “amplitude of Ca2+ release from the endoplasmic stores” value (SOCE in JOK B cells) of the same molecule?
Answer: Its value is “not found to be significantly affected”.

Question: And the “amplitude of SOCE” value (SOCE in JOK B cells; 5 and 20 μM, compared to control, irrespective of incubation time (5, 15, 30 minutes, 1 hour))?
Answer: Its value is “significantly reduces”.

Question: And the “death of HUVEC cells” value (HUVEC cells)?
Answer: Its value is “does not induce death”.

Question: And the “apoptosis or necrosis of cells” value (HUVEC cells; 5 or 20 μM, treated for 48 hours)?
Answer: The value was “do not induce apoptosis or necrosis”.

Question: What about the “death of B cells” value (JOK cells [3]; JOK B cells (FIG. 7)) of the same molecule?
Answer: Its value is “does not induce death”.

Question: And the “apoptosis or necrosis of cells” value (JOK cells [3]; JOK B cells (FIG. 7), 5 or 20 μM, treated for 48 hours)?
Answer: Its value is “do not induce apoptosis or necrosis”.

Question: And the cell survival (JOK cells [3]; JOK cells)?
Answer: Its cell survival is “without significant reduction”.

Question: What about the “transendothelial migration through HUVEC of JOK cells” value (JOK cells [4]) of the same molecule?
Answer: Its value is “does significantly inhibit”.

Question: And the “cytotoxicity in cancer PANC-1 cells” value (PANC-1 cells [5])?
Answer: Its value is “induces cytotoxicity”.

Question: What about the inhibition at 0.1 µM [6, 10] of the same molecule?
Answer: Its inhibition at 0.1 µM is 3%.

Question: And the inhibition at 0.1 µM [6, 11]?
Answer: Its inhibition at 0.1 µM is -5%.

Question: And the inhibition at 1 µM [6, 10]?
Answer: Its inhibition at 1 µM is -2%.

Question: What about the inhibition at 1 µM [6, 11] of the same molecule?
Answer: The inhibition at 1 µM was -7%.

Question: And the inhibition at 10 µM [6, 10]?
Answer: Its inhibition at 10 µM is 24%.

Question: What about the inhibition at 10 µM [6, 11] of the same molecule?
Answer: Its inhibition at 10 µM is 5%.

Question: And the inhibition at 50 µM [6, 10]?
Answer: Its inhibition at 50 µM is 79%.

Question: What about the inhibition at 50 µM [6, 11] of the same molecule?
Answer: The inhibition at 50 µM was 5%.

Question: And the inhibition at 100 µM [6, 10]?
Answer: Its inhibition at 100 µM is 81%.

Question: And the inhibition at 100 µM [6, 11]?
Answer: The inhibition at 100 µM was 2%.

Question: What about the IC50 ([6]; Lymphocyte, SOCE in PLP-B lymphocytes, average of three assays, ±0.5 μM) of the same molecule?
Answer: The IC50 was 15.4 µM.

Question: And the “effectiveness as modulator that inhibits SOCE without inhibiting Ca2+ release from ER stores” value ([6]; comparison of the series tested)?
Answer: Its value is “best candidate”.

Question: What about the PANC-1 proliferation (PANC-1 cells [7]) of the same molecule?
Answer: Its PANC-1 proliferation is “significantly reduces”.

Question: What about the cell cycle (JOK cells [8]) of the same molecule?
Answer: The cell cycle was “affects cell cycle”.

Question: What about the JOK proliferation (JOK cells [9]) of the same molecule?
Answer: The JOK proliferation was “significantly reduces”.
